Laboratory results reported in ChEMBL document CHEMBL5053556, “Design, Synthesis, and Biological Evaluation of a Novel Series of Teriflunomide Derivatives as Potent Human Dihydroorotate Dehydrogenase Inhibitors for Malignancy Treatment” (J Med Chem, 2021).
pIC50: −log10 of the molar value.

Experiments:
[1] = target: T1, Dihydroorotate dehydrogenase (quinone), mitochondrial (Homo sapiens, UniProt Q02127)
Description: Inhibition of human DHODH using dihydroorotate substrate preincubated for 30 mins followed by substrate addition by DCIP based microplate reader analysis

Raji [2] = test: Antiproliferative activity against human Raji cells assessed as cell growth inhibition incubated for 96 hrs by MTT assay; assay type: functional, cell-based
L02 = test: cells; assay type: ADME, cell-based; conditions: Homo sapiens, L02, 96 h
Description: Cytotoxicity against human L02 cells assessed as cell growth inhibition incubated for 96 hrs by MTT assay

Raji [3] = test: Induction of cell cycle arrest in human Raji cells assessed as accumulation of cells at S phase at 0.125 uM after 24 hrs by propidium iodide staining based flow cytometric analysis (reference value: 45.7%); assay type: functional
Raji [4] = test: Induction of cell cycle arrest in human Raji cells assessed as accumulation of cells at S phase at 0.25 uM after 24 hrs by propidium iodide staining based flow cytometric analysis (reference value: 45.7%); assay type: functional
Raji [5] = test: Antiproliferative activity against human Raji cells assessed as cell growth inhibition at 0.1 uM incubated for 96 hrs by MTT assay; assay type: functional; set-up: scale not given: the % may be the effect or the level left
Raji [6] = test: Antiproliferative activity against human Raji cells assessed as cell growth inhibition at 0.4 uM incubated for 96 hrs by MTT assay; assay type: functional; set-up: scale not given: the % may be the effect or the level left
Raji [7] = test: Antiproliferative activity against human Raji cells assessed as cell growth inhibition at 0.06 uM preincubated with uridine for 24 hrs followed by compound addition and measured after 72 hrs by MTT assay; assay type: functional; set-up: scale not given: the % may be the effect or the level left
Raji [8] = test: Antiproliferative activity against human Raji cells assessed as cell growth inhibition at 0.1 uM preincubated with uridine for 24 hrs followed by compound addition and measured after 72 hrs by MTT assay; assay type: functional; set-up: scale not given: the % may be the effect or the level left
Raji [9] = test: Antiproliferative activity against human Raji cells assessed as cell growth inhibition at 0.2 uM preincubated with uridine for 24 hrs followed by compound addition and measured after 72 hrs by MTT assay; assay type: functional; set-up: scale not given: the % may be the effect or the level left
Raji [10] = test: Antiproliferative activity against human Raji cells assessed as cell growth inhibition at 0.4 uM preincubated with uridine for 24 hrs followed by compound addition and measured after 72 hrs by MTT assay; assay type: functional; set-up: scale not given: the % may be the effect or the level left
[11] = Plasma protein binding in rat at 1 uM incubated for 5 hrs by LC-MS analysis; assay type: ADME, cell-free; conditions: read-out: PPB (converted)
[12] = Plasma protein binding in rat at 10 uM incubated for 5 hrs by LC-MS analysis; assay type: ADME, cell-free; conditions: read-out: PPB (converted)
[13] = Microsomal stability in human liver microsomes assessed as half life at 1 uM measured upto 120 mins in presence of NADPH by LC-MS analysis; assay type: ADME, Microsome
[14] = Microsomal stability in rat liver microsomes assessed as half life at 1 uM measured upto 120 mins in presence of NADPH by LC-MS analysis; assay type: ADME, Microsome
[15] = Cmax in Sprague-Dawley rat at 15 mg/kg, po measured after 48 hrs by LC-MS analysis; assay type: ADME, organism-based; set-up: dose 15 mg/kg, time 48 hrs, route po; conditions: in vivo
[16] = Half life in Sprague-Dawley rat at 5 mg/kg, iv measured after 48 hrs by LC-MS analysis; assay type: ADME, organism-based; conditions: in vivo
[17] = Clearance in Sprague-Dawley rat at 5 mg/kg, iv measured after 48 hrs by LC-MS analysis; assay type: ADME, organism-based; conditions: in vivo, iv, 5 mg/kg, 48 h
[18] = Clearance in Sprague-Dawley rat at 15 mg/kg, po measured after 48 hrs by LC-MS analysis; assay type: ADME, organism-based; conditions: in vivo
[19] = AUC(0 to t) in Sprague-Dawley rat at 5 mg/kg, iv measured after 48 hrs by LC-MS analysis; assay type: ADME, organism-based; set-up: time 48 hrs, dose 5 mg/kg, route iv; conditions: in vivo, 48 h
[20] = AUC(0 to t) in Sprague-Dawley rat at 15 mg/kg, po measured after 48 hrs by LC-MS analysis; assay type: ADME, organism-based; set-up: dose 15 mg/kg, time 48 hrs, route po; conditions: in vivo
[21] = Oral bioavailability in Sprague-Dawley rat at 15 mg/kg measured after 48 hrs by LC-MS analysis; assay type: ADME, organism-based; conditions: in vivo
[22] = Acute toxicity in BALB/c mouse assessed effect on body weight at 400 mg/kg, po; assay type: organism-based; conditions: in vivo
[23] = Acute toxicity in BALB/c mouse assessed effect on feeding at 400 mg/kg, po; assay type: organism-based; conditions: in vivo
MV4-11 = test: Antiproliferative activity against human MV4-11 cells assessed as cell growth inhibition incubated for 96 hrs by MTT assay; assay type: functional, cell-based; conditions: MV4-11, 96 h
HL-60 = test: Antiproliferative activity against human HL-60 cells assessed as cell growth inhibition incubated for 96 hrs by MTT assay; assay type: functional, cell-based; conditions: HL-60, 96 h
HEL = test: Antiproliferative activity against human HEL cells assessed as cell growth inhibition incubated for 96 hrs by MTT assay; assay type: functional, cell-based
Daudi = test: Antiproliferative activity against human Daudi cells assessed as cell growth inhibition incubated for 96 hrs by MTT assay; assay type: functional, cell-based
Raji [24] = test: Antitumor activity against human Raji cells xenografted in NOD-SCID mouse assessed as tumor growth inhibition at 40 mg/kg, po administered for 25 days; assay type: functional; conditions: 600 h, time 25 day, read-out: TGI
Mus musculus [25] = test: Toxicity in NOD-SCID mouse xenografted with human Raji cells assessed as change in AST level at 40 mg/kg, po administered for 25 days; assay type: organism-based; conditions: in vivo, 600 h, time 25 day
Mus musculus [26] = test: Toxicity in NOD-SCID mouse xenografted with human Raji cells assessed as change in uric acid level at 40 mg/kg, po administered for 25 days; assay type: organism-based; conditions: in vivo, 600 h, time 25 day
Mus musculus [27] = test: Toxicity in NOD-SCID mouse xenografted with human Raji cells assessed as change in UREAL at 40 mg/kg, po administered for 25 days; assay type: organism-based; conditions: in vivo, 600 h, time 25 day
Raji [28] = test: Antitumor activity against human Raji cells xenografted in NOD-SCID mouse assessed as tumor growth inhibition at 15 mg/kg, po administered for 25 days; assay type: functional; conditions: 600 h, time 25 day, read-out: TGI
Raji [29] = test: Antitumor activity against human Raji cells xenografted in NOD-SCID mouse assessed as tumor growth inhibition at 30 mg/kg, po administered for 25 days; assay type: functional; conditions: 600 h, time 25 day, read-out: TGI
[30] = Drug distribution in NOD-SCID mouse liver at 40 mg/kg, po administered for 25 days by LC-MS analysis; assay type: ADME, organism-based; conditions: in vivo, 600 h, time 25 day
[31] = Drug distribution in NOD-SCID mouse lung at 40 mg/kg, po administered for 25 days by LC-MS analysis; assay type: ADME, organism-based; conditions: in vivo, 600 h, time 25 day
[32] = Drug distribution in NOD-SCID mouse kidney at 40 mg/kg, po administered for 25 days by LC-MS analysis; assay type: ADME, organism-based; conditions: in vivo, 600 h, time 25 day
[33] = Drug distribution in NOD-SCID mouse tumor at 40 mg/kg, po administered for 25 days by LC-MS analysis; assay type: ADME, organism-based, Neoplasm; conditions: in vivo, 600 h, time 25 day
[34] = Acute toxicity in BALB/c mouse assessed as effect on lung at 400 mg/kg, po measured on day 14 by H and E staining based assay; assay type: organism-based; conditions: in vivo, 336 h, time 14 day
[35] = Acute toxicity in BALB/c mouse assessed as effect on kidney at 400 mg/kg, po measured on day 14 by H and E staining based assay; assay type: organism-based; conditions: in vivo, 336 h, time 14 day
[36] = Acute toxicity in BALB/c mouse assessed as effect on heart at 400 mg/kg, po measured on day 14 by H and E staining based assay; assay type: organism-based; conditions: in vivo, 336 h, time 14 day
[37] = Acute toxicity in BALB/c mouse assessed as effect on spleen at 400 mg/kg, po measured on day 14 by H and E staining based assay; assay type: organism-based; conditions: in vivo, 336 h, time 14 day
[38] = target: T1, Dihydroorotate dehydrogenase (quinone), mitochondrial; conditions: dose 100.0 nM, time 30.0 min

T1 sequence (Q02127 whole entry): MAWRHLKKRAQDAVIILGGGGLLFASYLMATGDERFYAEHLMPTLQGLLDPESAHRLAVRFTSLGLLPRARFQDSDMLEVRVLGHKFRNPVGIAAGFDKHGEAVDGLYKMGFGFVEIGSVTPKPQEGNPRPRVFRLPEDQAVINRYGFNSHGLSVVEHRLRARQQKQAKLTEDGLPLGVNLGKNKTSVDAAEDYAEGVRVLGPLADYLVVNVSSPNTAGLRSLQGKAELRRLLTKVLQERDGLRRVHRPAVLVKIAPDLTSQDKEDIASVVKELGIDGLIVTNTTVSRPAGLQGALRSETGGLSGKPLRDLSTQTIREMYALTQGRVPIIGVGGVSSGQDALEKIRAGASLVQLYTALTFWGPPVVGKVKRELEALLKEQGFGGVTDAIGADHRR

What does the source list for C/C(O)=C(\C#N)C(=O)Nc1cc(O[C@@H](C)C(F)(F)F)c(C(=O)Nc2c(F)cccc2F)cc1F?
pIC50 [1]: 7.80; pIC50 (Raji [2]): 8.11; pIC50 (L02): 6.29; Activity (Raji [3]): 64.4%; Activity (Raji [4]): 70.3%; Activity (Raji [5]): 43.1%; Activity (Raji [6]): 64.5%; Activity (Raji [7]): 3.3%; Activity (Raji [8]): 6.2%; Activity (Raji [9]): 17.1%; Activity (Raji [10]): 21.3%; fraction unbound at 5 h, 1 µM [11]: 0.014; fraction unbound at 5 h, 10 µM [12]: 0.007; half-life at 1 µM [13]: 23.1 h; half-life at 1 µM [14]: 1.43 h; Cmax [15]: 1.27 µg/mL; half-life [16]: 7.1 h; CL [17]: 0.6 L/h/kg; CL/F [18]: 0.6 L/h/kg; AUCt [19]: 31.644 µg·h/mL; AUC(0-t) at 48 h [20]: 29.5 µg·h/mL; bioavailability [21]: 31.1%; Activity [22]: Non-Toxic; Activity [23]: Non-Toxic; pIC50 (MV4-11): 7.70; pIC50 (HL-60): 7.70; pIC50 (HEL): 7.70; pIC50 (Daudi): 7.70; inhibition in vivo at 40 mg/kg (Raji [24]): 83.6%; Activity (Mus musculus [25]): Non-Toxic; Activity (Mus musculus [26]): Non-Toxic; Activity (Mus musculus [27]): Non-Toxic; inhibition in vivo at 15 mg/kg (Raji [28]): 72.2%; inhibition in vivo at 30 mg/kg (Raji [29]): 81.4%; Drug uptake [30]: Active; Drug uptake [31]: Active; Drug uptake [32]: Active; Drug uptake [33]: Active; Activity [34]: Non-Toxic; Activity [35]: Non-Toxic; Activity [36]: Non-Toxic; Activity [37]: Non-Toxic; inhibition [38]: 88.9%
